Here are results for three compounds from paper PMC5007513, “Discovery of new diketopiperazines inhibiting Burkholderia cenocepacia quorum sensing in vitro and in vivo” (Scientific Reports, 2016).

Series [1] concerns HeLa cells. Kind of series: Mammalian cell viability assay. The series is classed as cell-based, Human. The note with it: for cell death in microphotographs: 72 h. The method, then:
Human cervical carcinoma-derived HeLa cells were maintained in routine culture with weekly splitting. […] All reagents were purchased from Life Technologies. Twenty-four hours before drug treatment, cells were trypsinized, resuspended in medium and counted on a Z2 Beckman Coulter counter (Beckman Coulter) in order to obtain a confluent 12-wells plate. […] Cell viability data were derived from two independent experiments and were normalized to NT sample at 24 h. NT samples were subjected only to DMSO solvent. Microphotographs were obtained through an inverted microscope (Nikon) equipped with phase contrast and dark field illumination.

The test system of series [2] is C. elegans. The series can be described thus: Survival of uninfected C. elegans treated with the compounds. The note with it: no infection.
Series [3] concerns Burkholderia mallei AHL-synthase. Particulars: cited from earlier work.

`O=C1CNC(=O)C(c2cc(OCc3ccccc3)ccc2OCc2ccccc2)N1` (stereo not shown) [6a]: the “significant effects (p < 0.05) on cell growth” value in series [1] (HeLa, 10, 25, 50 and 100 μM, 24 h and 48 h) is “observed only after 48 h treatment at a concentration of 100 μM”. Moreover, in series [1] (HeLa), the “cell death in microphotographs” value was “did not induce cell death”. Besides, the C. elegans survival was found to be 98 ± 6% in series [2] (1 μM, 24 h); 91 ± 12% in series [2] (1 μM, 48 h); 99 ± 2% in series [2] (5 μM, 24 h); 98 ± 4% in series [2] (5 μM, 48 h); 91 ± 8% in series [2] (10 μM, 24 h); 86 ± 10% in series [2] (10 μM, 48 h). Also, the C. elegans survival in series [2] (25 μM, 24 h) came to 91 ± 4%; in series [2] (25 μM, 48 h), 91 ± 6%.
As to `O=C1C=CC(=O)C(C2NC(=O)C(Cc3ccccc3)NC2=O)=C1` (stereo not shown) [8b], the cell viability reduction result in series [1] (HeLa, 50 μM, 48 h) was “approximately 50%”. In addition, the “reduction in cell viability” value in series [1] (HeLa, 100 μM, 24 h) is around 20%. Further, the “cell death in microphotographs” value in series [1] (HeLa, 50 and 100 μM) is “confirmed cell death”. For the same compound, the C. elegans survival in series [2] (1 μM, 24 h) amounted to 98 ± 5%; in series [2] (1 μM, 48 h) it was 97 ± 6%; in series [2] (5 μM, 24 h), 97 ± 7%; in series [2] (5 μM, 48 h), 95 ± 7%; in series [2] (10 μM, 24 h), 99 ± 2%; in series [2] (10 μM, 48 h), 95 ± 10%. Also, the C. elegans survival in series [2] (25 μM, 24 h) is listed as 98 ± 5%; in series [2] (25 μM, 48 h), 96 ± 5%.
Turning to `CN1CCN(C(c2ccccn2)c2c(-c3ccccc3)n(O)c3ccccc23)CC1` (stereo not shown) [compound 1 from Christensen et al., reference compound], the “activity against AHL-synthase” value in series [3] is reported as “very active”.
